# Test results: article PMC10141580, “Cyclic Dichalcogenides Extend the Reach of Bioreductive Prodrugs to Harness Thiol/Disulfide Oxidoreductases: Applications to seco-Duocarmycins Targeting the Thioredoxin System” (ACS Central Science, 2023)
# Like-named read-outs stand apart in the source and are kept apart here.
# What was measured:
# [1] = system: NCI-60 standardized human tumor cell line panel; assay: cells; assay type: cell-based; conditions: for GI50: Homo sapiens
# [2] = system: A549 cells; assay: Resazurin cytotoxicity assay, A549, 72 h; conditions: Homo sapiens, read-out: IC50(nM): A549
# Protocol: We used A549 lung cancer and HeLa cervical cancer cell lines for initial screening of the prodrugs.
# Fi gure S9: Cell ular resazurin-based cytotoxi ci ty as s a y.
# Dose -response curves were calculated from at least 27 incremental single concentrations over a range
# of at least three log units. Individual experiments with annotated experiment numbers are shown for each prodrug
smiles,measurement,setting,value
COc1cc2cc(C(=O)N3C[C@@H](CCl)c4c3cc(OC(=O)N3CCN(C(=O)CCC(=O)N5CCN(C)CC5)[C@H]5CSSC[C@H]53)c3ccccc43)[nH]c2c(OC)c1OC [P-SS66C-CBI-TMI],GI50,"[1]; RPMI-8226, RPMI-8226, read-out: GI50",140 nM
same,GI50,"[1]; RPMI-8226, cell line RPMI-8226 (LE:RPMI-8226), TMI sheet, read-out: NCI-60 screening: Log(GI50) (converted)",141 nM
same,GI50,"[1]; RPMI-8226, cell line RPMI-8226 (LE:RPMI-8226), TMI sheet, read-out: NCI-60 screening: Raw GI50",140 nM
same,GI50,"[1]; RXF 393, RXF 393 (RE) cell line, log10 of GI50 in M, read-out: NCI-60 screening: Log(GI50) (converted)",34.7 nM
same,GI50,"[1]; RXF 393, RXF 393, read-out: GI50",35 nM
same,GI50,"[1]; SF-268, SF-268, read-out: GI50",58 nM
same,GI50,"[1]; SF-268, cell line SF-268 (CNS:SF-268), TMI sheet, read-out: NCI-60 screening: Log(GI50) (converted)",58.9 nM
same,GI50,"[1]; SF-295, SF-295, read-out: GI50",110 nM
same,GI50,"[1]; SF-295, cell line SF-295 (CNS:SF-295), TMI sheet, read-out: NCI-60 screening: Log(GI50) (converted)",112 nM
same,GI50,"[1]; SF-295, cell line SF-295 (CNS:SF-295), TMI sheet, read-out: NCI-60 screening: Raw GI50",110 nM
same,GI50,"[1]; SF-539, SF-539, read-out: GI50",39 nM
same,GI50,"[1]; SK-MEL-5, SK-MEL-5, read-out: GI50",110 nM
same,GI50,"[1]; SK-MEL-5, cell line SK-MEL-5 (ME:SK-MEL-5), TMI sheet, read-out: NCI-60 screening: Log(GI50) (converted)",112 nM
same,GI50,"[1]; SK-MEL-5, cell line SK-MEL-5 (ME:SK-MEL-5), TMI sheet, read-out: NCI-60 screening: Raw GI50",110 nM
same,GI50,"[1]; SK-MEL-28, SK-MEL-28, read-out: GI50",160 nM
same,GI50,"[1]; SK-MEL-28, cell line SK-MEL-28 (ME:SK-MEL-28), TMI sheet, read-out: NCI-60 screening: Log(GI50) (converted)",158 nM
same,GI50,"[1]; SK-OV-3, SK-OV-3 (OV) cell line, log10 of GI50 in M, read-out: NCI-60 screening: Log(GI50) (converted)",72.4 nM
same,GI50,"[1]; SK-OV-3, SK-OV-3, read-out: GI50",72 nM
same,GI50,"[1]; SN12C, SN12C (RE) cell line, log10 of GI50 in M, read-out: NCI-60 screening: Log(GI50) (converted)",44.7 nM
same,GI50,"[1]; SN12C, read-out: GI50",45 nM
same,GI50,"[1]; SNB-19, SNB-19, read-out: GI50",91 nM
same,GI50,"[1]; SNB-19, cell line SNB-19 (CNS:SNB-19), TMI sheet, read-out: NCI-60 screening: Log(GI50) (converted)",91.2 nM
same,GI50,"[1]; SR, read-out: GI50",19 nM
same,GI50,"[1]; SW-620, SW-620, read-out: GI50",130 nM
same,GI50,"[1]; SW-620, cell line SW-620 (CO:SW-620), TMI sheet, read-out: NCI-60 screening: Log(GI50) (converted)",132 nM
same,GI50,"[1]; SW-620, cell line SW-620 (CO:SW-620), TMI sheet, read-out: NCI-60 screening: Raw GI50",130 nM
same,GI50,"[1]; T47D, T-47D, read-out: GI50",230 nM
same,GI50,"[1]; T47D, cell line T-47D (BR:T-47D), TMI sheet, read-out: NCI-60 screening: Log(GI50) (converted)",229 nM
same,GI50,"[1]; TK-10, TK-10 (RE) cell line, log10 of GI50 in M, read-out: NCI-60 screening: Log(GI50) (converted)",1050 nM
same,GI50,"[1]; TK-10, TK-10, read-out: GI50",1000 nM
same,GI50,"[1]; U-251, U251, read-out: GI50",81 nM
same,GI50,"[1]; U-251, cell line U251 (CNS:U251), TMI sheet, read-out: NCI-60 screening: Log(GI50) (converted)",81.3 nM
same,GI50,"[1]; UACC-62, UACC-62, read-out: GI50",140 nM
same,GI50,"[1]; UACC-62, cell line UACC-62 (ME:UACC-62), TMI sheet, read-out: NCI-60 screening: Log(GI50) (converted)",135 nM
same,GI50,"[1]; UACC-62, cell line UACC-62 (ME:UACC-62), TMI sheet, read-out: NCI-60 screening: Raw GI50",140 nM
same,GI50,"[1]; UACC-257, UACC-257, read-out: GI50",270 nM
same,GI50,"[1]; UACC-257, cell line UACC-257 (ME:UACC-257), TMI sheet, read-out: NCI-60 screening: Log(GI50) (converted)",275 nM
same,GI50,"[1]; UACC-257, cell line UACC-257 (ME:UACC-257), TMI sheet, read-out: NCI-60 screening: Raw GI50",270 nM
same,GI50,"[1]; cell line M14 (ME:M14), TMI sheet, read-out: NCI-60 screening: Log(GI50) (converted)",123 nM
same,GI50,"[1]; cell line SF-539 (CNS:SF-539), TMI sheet, read-out: NCI-60 screening: Log(GI50) (converted)",38.9 nM
same,GI50,"[1]; cell line SR (LE:SR), TMI sheet, read-out: NCI-60 screening: Log(GI50) (converted)",19.5 nM
same,GI50,"[1]; cell line SR (LE:SR), TMI sheet, read-out: NCI-60 screening: Raw GI50",19 nM
same,NCI-60 screening: Log(RedIndex),"[1]; IGROV1 (OV) cell line, log10 reductive index vs P-CC60",1.07
same,"GI50/IC50, mean","[1]; NCI-60 vs ProliFiler, 19 overlapping cell lines",3.5
same,NCI-60 screening: Log(RedIndex),"[1]; NCI-H460 (LC) cell line, log10 reductive index vs P-CC60",1.36
same,NCI-60 screening: Log(RedIndex),"[1]; NCI-H522 (LC) cell line, log10 reductive index vs P-CC60",1.49
same,NCI-60 screening: Log(RedIndex),"[1]; OVCAR-3 (OV) cell line, log10 reductive index vs P-CC60",1.16
same,NCI-60 screening: Log(RedIndex),"[1]; OVCAR-4 (OV) cell line, log10 reductive index vs P-CC60",1.08
same,NCI-60 screening: Log(RedIndex),"[1]; OVCAR-5 (OV) cell line, log10 reductive index vs P-CC60",1.3
same,NCI-60 screening: Log(RedIndex),"[1]; OVCAR-8 (OV) cell line, log10 reductive index vs P-CC60",1.26
same,NCI-60 screening: Log(RedIndex),"[1]; PC-3 (PR) cell line, log10 reductive index vs P-CC60",0.82
same,NCI-60 screening: Log(RedIndex),"[1]; RXF 393 (RE) cell line, log10 reductive index vs P-CC60",1.48
same,NCI-60 screening: Log(RedIndex),"[1]; SK-OV-3 (OV) cell line, log10 reductive index vs P-CC60",1.47
same,NCI-60 screening: Log(RedIndex),"[1]; SN12C (RE) cell line, log10 reductive index vs P-CC60",1.43
same,NCI-60 screening: Log(RedIndex),"[1]; TK-10 (RE) cell line, log10 reductive index vs P-CC60",0.43
same,NCI-60 screening: Log(RedIndex),"[1]; cell line A549/ATCC (LC:A549/ATCC), TMI sheet",1.35
same,NCI-60 screening: Log(RedIndex),"[1]; cell line BT-549 (BR:BT-549), TMI sheet",1.04
same,NCI-60 screening: Log(RedIndex),"[1]; cell line CCRF-CEM (LE:CCRF-CEM), TMI sheet",0.57
same,NCI-60 screening: Log(RedIndex),"[1]; cell line COLO 205 (CO:COLO 205), TMI sheet",0.98
same,NCI-60 screening: Log(RedIndex),"[1]; cell line EKVX (LC:EKVX), TMI sheet",0.97
same,NCI-60 screening: Log(RedIndex),"[1]; cell line HCC-2998 (CO:HCC-2998), TMI sheet",1.45
same,NCI-60 screening: Log(RedIndex),"[1]; cell line HCT-15 (CO:HCT-15), TMI sheet",0.85
same,NCI-60 screening: Log(RedIndex),"[1]; cell line HCT-116 (CO:HCT-116), TMI sheet",0.99
same,NCI-60 screening: Log(RedIndex),"[1]; cell line HL-60(TB) (LE:HL-60(TB)), TMI sheet",1.19
same,NCI-60 screening: Log(RedIndex),"[1]; cell line HOP-62 (LC:HOP-62), TMI sheet",1.16
same,NCI-60 screening: Log(RedIndex),"[1]; cell line HOP-92 (LC:HOP-92), TMI sheet",1.15
same,NCI-60 screening: Log(RedIndex),"[1]; cell line HT29 (CO:HT29), TMI sheet",1.03
same,NCI-60 screening: Log(RedIndex),"[1]; cell line K-562 (LE:K-562), TMI sheet",0.88
same,NCI-60 screening: Log(RedIndex),"[1]; cell line KM12 (CO:KM12), TMI sheet",1.2
same,NCI-60 screening: Log(RedIndex),"[1]; cell line LOX IMVI (ME:LOX IMVI), TMI sheet",1.2
same,NCI-60 screening: Log(RedIndex),"[1]; cell line M14 (ME:M14), TMI sheet",1.09
same,NCI-60 screening: Log(RedIndex),"[1]; cell line MALME-3M (ME:MALME-3M), TMI sheet",1.07
same,NCI-60 screening: Log(RedIndex),"[1]; cell line MCF7 (BR:MCF7), TMI sheet",1.33
same,NCI-60 screening: Log(RedIndex),"[1]; cell line MDA-MB-435 (ME:MDA-MB-435), TMI sheet",1.08
same,NCI-60 screening: Log(RedIndex),"[1]; cell line MOLT-4 (LE:MOLT-4), TMI sheet",0.98
same,NCI-60 screening: Log(RedIndex),"[1]; cell line NCI-H23 (LC:NCI-H23), TMI sheet",1.4
same,NCI-60 screening: Log(RedIndex),"[1]; cell line NCI-H226 (LC:NCI-H226), TMI sheet",0.77
same,NCI-60 screening: Log(RedIndex),"[1]; cell line RPMI-8226 (LE:RPMI-8226), TMI sheet",1.02
same,NCI-60 screening: Log(RedIndex),"[1]; cell line SF-268 (CNS:SF-268), TMI sheet",1.42
same,NCI-60 screening: Log(RedIndex),"[1]; cell line SF-295 (CNS:SF-295), TMI sheet",1.15
same,NCI-60 screening: Log(RedIndex),"[1]; cell line SF-539 (CNS:SF-539), TMI sheet",1.53
same,NCI-60 screening: Log(RedIndex),"[1]; cell line SK-MEL-5 (ME:SK-MEL-5), TMI sheet",1.17
same,NCI-60 screening: Log(RedIndex),"[1]; cell line SK-MEL-28 (ME:SK-MEL-28), TMI sheet",1.35
same,NCI-60 screening: Log(RedIndex),"[1]; cell line SNB-19 (CNS:SNB-19), TMI sheet",1.39
same,NCI-60 screening: Log(RedIndex),"[1]; cell line SR (LE:SR), TMI sheet",1.15
same,NCI-60 screening: Log(RedIndex),"[1]; cell line SW-620 (CO:SW-620), TMI sheet",1.15
same,NCI-60 screening: Log(RedIndex),"[1]; cell line T-47D (BR:T-47D), TMI sheet",0.92
same,NCI-60 screening: Log(RedIndex),"[1]; cell line U251 (CNS:U251), TMI sheet",1.27
same,NCI-60 screening: Log(RedIndex),"[1]; cell line UACC-62 (ME:UACC-62), TMI sheet",1.05
same,NCI-60 screening: Log(RedIndex),"[1]; cell line UACC-257 (ME:UACC-257), TMI sheet",0.86
same,mean reductive index,"[1]; mean over NCI cell lines, vs P-CC60",14
same,reductive index,"[1]; span over NCI cell lines, vs P-CC60",≤ 30
same,IC50,[2],12 nM
